Data reported in article PMC12021085 (2025).

Experiments:
[1] = system: NOP56-G4 (DNA, G4) GGGCCTGGGCCTGGGCCTGGG; experiment: CD spectroscopy; details: K+ (100 mM KCl), Na+ (1 mM sodium phosphate); pH 7, 25 °C; 20 µM DNA, 20 µM PDS; antiparallel G4 features
[2] = system: NOP56-G4 (DNA, G4) GGGCCTGGGCCTGGGCCTGGG; experiment: ITC; details: Na+ (1 mM sodium phosphate); pH 7.0, room temperature; 200 µM PDS titrated into 10 µM DNA
[3] = system: NOP56-G4 (DNA, G4) GGGCCTGGGCCTGGGCCTGGG; experiment: solution NMR structure; details: Na+ (1 mM sodium phosphate); pH 7, 25 °C; 0.5 mM DNA, 1.5 mM PDS; stacks on terminal G-tetrad
[4] = system: NOP56-G4 (DNA, G4) GGGCCTGGGCCTGGGCCTGGG; experiment: CD melting at 295 nm; details: Na+ (1 mM sodium phosphate); pH 7; 3 equivalents PDS; Tm 44.8 to 58.8 °C
[5] = system: NOP56-G4 template (with annealed Cy5 primer) (DNA, G4) GGGCCTGGGCCTGGGCCTGGGTTTTTTTATAGTGAGTCGTATTA/TAATACGACTCACTATA; experiment: DNA polymerase stop assay (Klenow fragment); details: K+ (100 mM KCl), Na+ (50 mM NaCl), Mg2+ (10 mM MgCl2); 10 mM Tris-HCl pH 7.9, 1 mM DTT, 37 °C; PDS concentration-dependent stalling

SMILES: NCCOc1cc(C(=O)Nc2cc(OCCN)c3ccccc3n2)nc(C(=O)Nc2cc(OCCN)c3ccccc3n2)c1
- binding [1]: yes
- KD [2]: 640 ± 20 nM
- binding [3]: yes
- Tm increase [4]: ~ 14 °C
- binding [5]: yes
